Earlier results on 3 molecules are cited in patent US20170049679A1, “ORAL AND DENTAL HYGIENE AND CLEANING AGENTS FOR REDUCING TOOTH DISCOLORATION” (Henkel AG & Co. KGaA, priority 2014, published 2017).

Like-named read-outs stand apart in the source and are kept apart here.

`[Cl-].[Cl-].[Zn+2]` [Zinc chloride]: the Solubility (25° C.) was 4320 mg/mL. Turning to Zinc acetylacetonate, where the note is “20° C.”, the Solubility was 4 mg/mL. On to Zinc hydroxycarbonate, for which the “Solubility (in words)” value (20° C.) is recorded as “Nearly insoluble”.

In general, Solubility refers to how much of the substance goes into solution per volume.
